Laboratory results taken from ChEMBL document CHEMBL3045849, “Mode of inhibition of acetylcholinesterase by monoterpenoids and implications for pest control” (Ind Crops Prod, 2010).
Activity calls are given as the source filed them. The calls are words filed in the database; no cut-off is given here.

Columns and labels:
[1] = target: Acetylcholinesterase (Electrophorus electricus) (UniProt O42275); assay: Mixed type inhibition of Electrophorus electricus (electric eel) acetylcholinesteraseAChE using acetylthiocholine iodide substrate by Ellman method based colorimetry
Acetylcholinesterase (Electrophorus electricus), sequence (O42275 24-633 limits assumed): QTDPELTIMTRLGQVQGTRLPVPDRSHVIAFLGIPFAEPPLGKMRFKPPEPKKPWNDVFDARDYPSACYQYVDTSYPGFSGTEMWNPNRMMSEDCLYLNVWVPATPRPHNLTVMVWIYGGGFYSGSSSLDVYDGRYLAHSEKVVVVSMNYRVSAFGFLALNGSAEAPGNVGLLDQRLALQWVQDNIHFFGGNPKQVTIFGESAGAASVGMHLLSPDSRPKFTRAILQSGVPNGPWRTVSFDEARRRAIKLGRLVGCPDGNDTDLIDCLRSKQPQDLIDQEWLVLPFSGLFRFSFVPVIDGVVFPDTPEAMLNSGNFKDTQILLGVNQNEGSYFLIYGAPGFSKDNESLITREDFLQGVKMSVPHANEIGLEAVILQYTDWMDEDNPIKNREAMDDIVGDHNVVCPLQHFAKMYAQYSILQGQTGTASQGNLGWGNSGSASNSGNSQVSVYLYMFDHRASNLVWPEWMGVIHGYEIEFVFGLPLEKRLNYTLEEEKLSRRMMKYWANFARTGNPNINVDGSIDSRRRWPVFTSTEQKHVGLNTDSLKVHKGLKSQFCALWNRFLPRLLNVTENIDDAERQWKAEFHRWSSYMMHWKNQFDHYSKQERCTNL

[2] = target: Acetylcholinesterase (Electrophorus electricus) (UniProt O42275); assay: Reversible inhibition of Electrophorus electricus (electric eel)acetylcholinesterase (AChE) using acetylthiocholine iodide substrate by Ellman method based colorimetry
[3] = target: Acetylcholinesterase (Electrophorus electricus, UniProt O42275); assay: Inhibition of Electrophorus electricus (electric eel) acetylcholinesterase (AChE) using acetylthiocholine iodide substrate by Ellman method based colorimetry
Acetylcholinesterase, sequence (O42275 whole entry): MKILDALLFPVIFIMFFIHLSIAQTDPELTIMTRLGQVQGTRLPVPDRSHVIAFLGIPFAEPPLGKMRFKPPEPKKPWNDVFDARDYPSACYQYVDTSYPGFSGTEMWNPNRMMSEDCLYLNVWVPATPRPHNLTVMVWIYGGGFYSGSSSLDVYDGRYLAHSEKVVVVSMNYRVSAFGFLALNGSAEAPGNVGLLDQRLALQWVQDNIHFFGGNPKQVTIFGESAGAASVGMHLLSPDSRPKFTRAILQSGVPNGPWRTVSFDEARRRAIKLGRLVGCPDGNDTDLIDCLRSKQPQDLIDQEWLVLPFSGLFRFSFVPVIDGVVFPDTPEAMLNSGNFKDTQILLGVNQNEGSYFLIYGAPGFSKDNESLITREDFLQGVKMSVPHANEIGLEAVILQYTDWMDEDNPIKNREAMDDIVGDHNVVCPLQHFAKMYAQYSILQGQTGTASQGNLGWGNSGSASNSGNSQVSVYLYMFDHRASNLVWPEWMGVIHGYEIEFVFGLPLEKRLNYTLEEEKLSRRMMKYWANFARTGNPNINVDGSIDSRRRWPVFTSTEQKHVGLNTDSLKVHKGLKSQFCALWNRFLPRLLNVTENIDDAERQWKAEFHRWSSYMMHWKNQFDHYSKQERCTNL

[4] = target: Acetylcholinesterase (Electrophorus electricus) (UniProt O42275); assay: Competitive inhibition of Electrophorus electricus (electric eel) acetylcholinesterase (AChE) using acetylthiocholine iodide substrate by Ellman method based colorimetry
[5] = target: Acetylcholinesterase (Electrophorus electricus) (UniProt O42275); assay: Inhibition of Electrophorus electricus (electric eel) acetylcholinesterase (AChE) at 100 mM using 10 mM acetylthiocholine iodide substrate after 15 min by Ellman method based colorimetry
[6] = target: Acetylcholinesterase (Electrophorus electricus) (UniProt O42275); assay: Inhibition of Electrophorus electricus (electric eel) acetylcholinesterase (AChE) at 50 mM using 5 mM acetylthiocholine iodide substrate after 15 min by Ellman method based colorimetry
[7] = target: Acetylcholinesterase (Electrophorus electricus) (UniProt O42275); assay: Inhibition of Electrophorus electricus (electric eel) acetylcholinesterase (AChE) at 10 mM using 2 mM acetylthiocholine iodide substrate after 15 min by Ellman method based colorimetry
[8] = target: Acetylcholinesterase (Electrophorus electricus) (UniProt O42275); assay: Inhibition of Electrophorus electricus (electric eel) acetylcholinesterase (AChE) at 1 mM using 1 mM acetylthiocholine iodide substrate after 15 min by Ellman method based colorimetry

Row | Compound | inhibition [1] | inhibition [2] | Ki ([3]; read-out: Ki) [µM] | Ki [3] | inhibition [4] | inhibition [5] [%] | inhibition [6] [%] | inhibition [7] [%] | inhibition [8] [%]
1 | C=C(C)[C@H]1CC=C(C)C(=O)C1 [(S)(+)CARVONE] | Active | Active | 300 | – | – | – | – | – | –
2 | C/C=C/c1ccc(OC)cc1 [ANETHOLE] | – | Active | – | Not Active | – | – | – | – | –
3 | CC12CCC(CC1=O)C2(C)C (configuration not stated) [CAMPHOR] | Active | Active | 50 | – | – | – | – | – | –
4 | C=CCc1ccc(OC)cc1 [ESTRAGOLE] | Active | Active | 150 | – | – | – | – | – | –
5 | CC12CCC(C1)C(C)(C)C2=O (configuration not stated) [FENCHONE] | – | Active | 400 | – | Active | 90.7 | 84.1 | 79.8 | 53.8
6 | CC1=CCC(C(C)C)=CC1 [GAMMA-TERPINENE] | – | Active | 200 | – | Active | – | – | – | –
7 | CC(C)=CCC/C(C)=C/CO [GERANIOL] | – | Active | 100 | – | Active | – | – | – | –
8 | C=CC(C)(O)CCC=C(C)C (configuration not stated) [LINALOOL] | – | Active | 300 | – | Active | – | – | – | –
